Test results reported in patent EP3625243B1, “TAILORED CYCLODEPSIPEPTIDES AS POTENT NON-COVALENT SERINE PROTEASE INHIBITORS” (Universität Duisburg-Essen, priority 2017, dated 2018).
Read-outs that look alike come from different tables or passages of the source.

What was measured:
[1] = biological target: T1, human pancreas chymotrypsin (Homo sapiens, UniProt P17538); assay: Chromogenic enzyme activity assay, chymotrypsin; assay type: biochemical; conditions: Table 2, substrate AAF-pNA, read-out: Ki Chymo- trypsin [a]
T1 construct: purchased Sigma-Aldrich SRP6509-100
T1 sequence (P17538 19-263): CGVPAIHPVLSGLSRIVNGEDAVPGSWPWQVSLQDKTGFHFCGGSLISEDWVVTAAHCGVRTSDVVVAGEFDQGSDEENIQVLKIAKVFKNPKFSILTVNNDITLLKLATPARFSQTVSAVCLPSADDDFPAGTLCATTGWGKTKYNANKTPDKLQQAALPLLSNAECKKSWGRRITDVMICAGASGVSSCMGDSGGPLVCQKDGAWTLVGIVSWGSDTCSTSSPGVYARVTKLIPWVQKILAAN

[2] = biological target: T2, HTRA2 (Homo sapiens, UniProt O43464); assay: Chromogenic enzyme activity assay, HTRA2
T2 sequence (O43464 134-458): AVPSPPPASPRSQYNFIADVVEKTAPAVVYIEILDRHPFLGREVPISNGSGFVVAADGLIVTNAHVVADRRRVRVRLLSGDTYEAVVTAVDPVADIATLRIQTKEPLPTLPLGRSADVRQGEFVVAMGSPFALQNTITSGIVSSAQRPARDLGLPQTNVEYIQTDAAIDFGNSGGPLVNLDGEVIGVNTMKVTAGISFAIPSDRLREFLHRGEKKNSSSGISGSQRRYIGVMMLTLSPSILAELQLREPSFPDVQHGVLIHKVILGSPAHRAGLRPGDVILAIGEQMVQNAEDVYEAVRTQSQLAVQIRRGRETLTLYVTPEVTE

[3] = biological target: T3, human neutrophil elastase (Homo sapiens, UniProt P08246); assay: Chromogenic enzyme activity assay, elastase; assay type: biochemical
T3 construct: purchased Enzo Life Sciences BML-SE284
T3 sequence (P08246 30-267): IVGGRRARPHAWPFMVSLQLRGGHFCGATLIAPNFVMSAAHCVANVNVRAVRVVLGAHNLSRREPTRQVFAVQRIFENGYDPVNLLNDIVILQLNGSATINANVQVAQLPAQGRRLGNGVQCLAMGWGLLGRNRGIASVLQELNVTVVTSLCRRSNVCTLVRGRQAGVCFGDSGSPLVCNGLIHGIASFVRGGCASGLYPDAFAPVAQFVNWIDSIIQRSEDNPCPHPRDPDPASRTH

[4] = biological target: T4, bovine pancreas trypsin (Bos taurus, UniProt P00760); assay: Chromogenic enzyme activity assay, trypsin; assay type: biochemical; conditions: Table 2, read-out: Ki Trypsin [c]
T4 construct: purchased Sigma-Aldrich T1426
T4 sequence (P00760 24-246): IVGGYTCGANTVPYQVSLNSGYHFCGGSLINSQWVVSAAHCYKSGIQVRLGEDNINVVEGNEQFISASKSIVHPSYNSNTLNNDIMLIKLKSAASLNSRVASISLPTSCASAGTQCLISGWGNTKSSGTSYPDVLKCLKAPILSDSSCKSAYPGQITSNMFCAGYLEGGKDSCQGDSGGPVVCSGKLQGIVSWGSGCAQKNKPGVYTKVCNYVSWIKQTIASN

[5] = biological target: HTRA1 (Homo sapiens, UniProt Q92743); assay: Chromogenic enzyme activity assay, HTRA1
Chain of HTRA1 (Q92743 158-480): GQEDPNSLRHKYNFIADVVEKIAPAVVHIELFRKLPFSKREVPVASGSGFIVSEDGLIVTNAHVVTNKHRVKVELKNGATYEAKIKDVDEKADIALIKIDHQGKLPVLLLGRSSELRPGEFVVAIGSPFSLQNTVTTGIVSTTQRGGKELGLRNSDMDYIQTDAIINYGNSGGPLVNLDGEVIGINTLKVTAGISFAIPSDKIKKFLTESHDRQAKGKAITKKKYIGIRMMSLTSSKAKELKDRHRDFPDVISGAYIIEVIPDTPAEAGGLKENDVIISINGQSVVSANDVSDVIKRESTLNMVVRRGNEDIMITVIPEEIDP

[6] = biological target: HTRA3 (Homo sapiens, UniProt P83110); assay: Chromogenic enzyme activity assay, HTRA3
Chain of HTRA3 (P83110 111-436): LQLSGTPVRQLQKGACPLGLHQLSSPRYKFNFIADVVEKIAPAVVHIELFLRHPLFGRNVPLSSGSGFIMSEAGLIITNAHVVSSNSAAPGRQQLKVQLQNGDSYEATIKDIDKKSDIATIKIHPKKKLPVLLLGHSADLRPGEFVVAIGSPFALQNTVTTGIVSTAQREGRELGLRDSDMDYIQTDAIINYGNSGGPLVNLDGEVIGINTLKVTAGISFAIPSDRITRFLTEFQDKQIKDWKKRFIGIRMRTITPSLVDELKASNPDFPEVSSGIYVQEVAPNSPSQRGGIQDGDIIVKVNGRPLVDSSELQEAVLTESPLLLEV

[7] = Table 2, substrate AAPV-pNA, read-out: Ki Elastase [b]
[8] = Table 3, read-out: Ki Elastase [b]

SMILES | Ki [1] | Ki [5] | Ki [2] | Ki [6] | Ki [3, 8] | further results
CC(C)C[C@H]1C(=O)N(C)[C@@H](Cc2ccccc2)C(=O)N[C@@H](C(C)C)C(=O)O[C@H](C)[C@H](NC(=O)[C@H](Cc2ccccc2)NC(=O)[C@H](C)NC(=O)OCc2ccccc2)C(=O)N[C@@H](C(C)C)C(=O)N[C@H]2CC[C@@H](O)N1C2=O [Ahp4] | > 50000 nM |  |  |  |  | HTRA2 inhibition potency relative to Ahp1 ([2]; compared with Ahp1): more than ten-fold more potent
CC(C)C[C@H]1C(=O)N(C)[C@@H](Cc2ccccc2)C(=O)N[C@@H](C(C)C)C(=O)O[C@H](C)[C@H](NC(=O)[C@H](C)NC(=O)[C@H](C)NC(=O)OCc2ccccc2)C(=O)N[C@@H](Cc2ccccc2)C(=O)N[C@H]2CC[C@@H](O)N1C2=O [Ahp2] |  | > 50000 nM | > 50000 nM | > 50000 nM |  | Ki [3, 7]: > 50000 nM; Ki [4]: > 50000 nM
C#CC[C@@H]1NC(=O)[C@@H](NC(=O)[C@H](C)NC(=O)[C@H](C)NC(=O)OCc2ccccc2)[C@@H](C)OC(=O)[C@H](C(C)C)NC(=O)[C@H](Cc2ccccc2)N(C)C(=O)[C@H](CC(C)C)N2C(=O)[C@H](CC[C@H]2O)NC1=O [Ahp18] |  | > 50000 nM |  | 17900 nM | 200 nM | 
CC(C)C[C@H]1C(=O)N(C)[C@@H](C)C(=O)N[C@@H](C(C)C)C(=O)O[C@H](C)[C@H](NC(=O)[C@H](C)NC(=O)[C@H](C)NC(=O)OCc2ccccc2)C(=O)N[C@@H](C(C)C)C(=O)N[C@H]2CC[C@@H](O)N1C2=O [Ahp7] | > 50000 nM | > 50000 nM | 6900 ± 1500 nM | > 50000 nM |  | Ki [3, 7]: 110 ± 20 nM
CCC[C@@H]1NC(=O)[C@@H](NC(=O)[C@H](C)NC(=O)[C@H](C)NC(=O)OCc2ccccc2)[C@@H](C)OC(=O)[C@H](C(C)C)NC(=O)[C@H](Cc2ccccc2)N(C)C(=O)[C@H](CC(C)C)N2C(=O)[C@H](CC[C@H]2O)NC1=O [Ahp15] |  | 7000 nM | 690 nM | > 50000 nM | 130 nM | 
CCC(C)[C@@H]1NC(=O)[C@@H](NC(=O)[C@H](C)NC(=O)[C@H](C)NC(=O)OCc2ccccc2)[C@@H](C)OC(=O)[C@H](C(C)C)NC(=O)[C@H](Cc2ccccc2)N(C)C(=O)[C@H](CC(C)C)N2C(=O)[C@H](CC[C@H]2O)NC1=O (some centres unmarked) [Ahp16] |  | > 50000 nM | > 50000 nM | > 50000 nM | 500 nM | 
CC(C)[C@@H]1NC(=O)[C@@H](NC(=O)[C@H](C)NC(=O)[C@H](C)NC(=O)OCc2ccccc2)[C@@H](C)OC(=O)[C@H](C(C)C)NC(=O)[C@H](Cc2ccccc2)N(C)C(=O)[C@H](Cc2ccccc2)N2C(=O)[C@H](CC[C@H]2O)NC1=O [Ahp6] | > 50000 nM |  |  |  |  | 
CC[C@@H]1NC(=O)[C@@H](NC(=O)[C@H](C)NC(=O)[C@H](C)NC(=O)OCc2ccccc2)[C@@H](C)OC(=O)[C@H](C(C)C)NC(=O)[C@H](Cc2ccccc2)N(C)C(=O)[C@H](CC(C)C)N2C(=O)[C@H](CC[C@H]2O)NC1=O [Ahp14] |  | 2970 nM | 700 nM | 1460 nM | 470 nM | 
CC(C)C[C@H]1C(=O)N(C)[C@@H](Cc2ccccc2)C(=O)N[C@@H](C(C)C)C(=O)O[C@H](C(C)C)[C@H](NC(=O)[C@H](C)NC(=O)[C@H](C)NC(=O)OCc2ccccc2)C(=O)N[C@@H](C(C)C)C(=O)N[C@H]2CC[C@@H](O)N1C2=O [Ahp10] | > 50000 nM | 2400 ± 600 nM | 260 ± 30 nM | 480 ± 70 nM |  | Ki [3, 7]: 18 ± 4 nM; Ki (HTRA2) ([2]; Table 2): sub-µM
CC(C)C[C@H]1C(=O)N(C)[C@@H](Cc2ccccc2)C(=O)N[C@@H](C(C)C)C(=O)O[C@H](c2ccccc2)[C@H](NC(=O)[C@H](C)NC(=O)[C@H](C)NC(=O)OCc2ccccc2)C(=O)N[C@@H](C(C)C)C(=O)N[C@H]2CC[C@@H](O)N1C2=O [Ahp3] | > 50000 nM |  |  |  |  | 
C=CC[C@@H]1NC(=O)[C@@H](NC(=O)[C@H](C)NC(=O)[C@H](C)NC(=O)OCc2ccccc2)[C@@H](C)OC(=O)[C@H](C(C)C)NC(=O)[C@H](Cc2ccccc2)N(C)C(=O)[C@H](CC(C)C)N2C(=O)[C@H](CC[C@H]2O)NC1=O [Ahp17] |  | > 50000 nM | 1380 nM | 840 nM | 160 nM | 
CC(C)C[C@H]1C(=O)N(C)[C@@H](Cc2ccccc2)C(=O)N[C@@H](C(C)C)C(=O)O[C@H](C)[C@H](NC(=O)[C@H](C)NC(=O)[C@H](C)NC(=O)OCc2ccccc2)C(=O)N[C@@H](C2CCCCC2)C(=O)N[C@H]2CC[C@@H](O)N1C2=O [Ahp21] |  |  |  |  | > 50000 nM | Ki ([5]; read-out: Ki HTRA1 [a], Table 3, human HTRA proteases): > 50000 nM; Ki ([2]; read-out: Ki HTRA2 [a], Table 3, human HTRA proteases): > 50000 nM; Ki ([6]; read-out: Ki HTRA3 [a], Table 3, human HTRA proteases): > 50000 nM
CC(C)C[C@H]1C(=O)N(C)[C@@H](Cc2ccccc2)C(=O)N[C@@H](C(C)C)C(=O)O[C@H](C)[C@H](NC(=O)[C@H](C)NC(=O)[C@H](C)NC(=O)OCc2ccccc2)C(=O)N[C@@H](C(C)C)C(=O)N[C@H]2CC[C@@H](O)N1C2=O [Ahp1] | > 50000 nM | 8200 ± 2700 nM | 4100 ± 400 nM | 3000 ± 500 nM |  | Ki [3, 7]: 19 ± 3 nM
CC(C)C[C@H]1C(=O)N(C)[C@@H](Cc2ccccc2)C(=O)N[C@@H](C(C)C)C(=O)O[C@H](C)[C@H](NC(=O)[C@H](C)NC(=O)[C@H](C)NC(=O)OCc2ccccc2)C(=O)N[C@@H](C)C(=O)N[C@H]2CC[C@@H](O)N1C2=O [Ahp13] |  | 4260 nM | 260 nM | 980 nM | 26 nM | 
CC(C)C[C@H]1C(=O)N(C)[C@@H](Cc2ccccc2)C(=O)N[C@@H](Cc2ccccc2)C(=O)O[C@H](C)[C@H](NC(=O)[C@H](C)NC(=O)[C@H](C)NC(=O)OCc2ccccc2)C(=O)N[C@@H](C(C)C)C(=O)N[C@H]2CC[C@@H](O)N1C2=O [Ahp8] | > 50000 nM |  |  |  |  | 
